Experimental data reported in EP2582674B1 (Cymabay Therapeutics, Inc., priority 2010, dated 2011).

Each molecule was assayed against T1, human GPR120 (Homo sapiens, UniProt Q5NUL3) (assay: Intracellular Ca2+ assay in human GPR120 stable cell line (FLIPR Calcium 4 dye, Flexstation)). Conditions: % activity at 2.5 µM compared to the maximal activity of the compound of Example 25 at 2.5 µM (=100%); HEK293 cells co-expressing Gqi5.
T1 construct: host or cells: HEK293 cells co-expressing Gqi5
T1 sequence (Q5NUL3 1-361): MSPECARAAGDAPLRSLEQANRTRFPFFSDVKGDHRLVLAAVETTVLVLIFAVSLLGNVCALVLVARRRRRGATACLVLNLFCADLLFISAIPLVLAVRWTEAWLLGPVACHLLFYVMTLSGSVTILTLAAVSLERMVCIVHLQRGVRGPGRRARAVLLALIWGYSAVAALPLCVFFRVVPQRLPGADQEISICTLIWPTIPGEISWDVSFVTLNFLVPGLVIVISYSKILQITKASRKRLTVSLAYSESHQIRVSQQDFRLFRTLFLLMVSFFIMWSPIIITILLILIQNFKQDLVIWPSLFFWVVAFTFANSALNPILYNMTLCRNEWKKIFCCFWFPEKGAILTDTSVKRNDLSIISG
Format: cell-based
Protocol: Human GPR120 stable cell line was purchased from Multispan Inc (26219 Eden Landing Road, Hayward, CA94545). This GPR120 cell line was generated in HEK293 cells co-expressing Gqi5. In this cell line, the Flag epitope tag (DYKDDDDK) was fused to the amino terminus of human GPR120 protein.
The concentration of intracellular Ca^2+ was measured as described below. Human GPR120 cells were plated in 96 well plates (Poly-D-Lysine coated black/clear Plate, Greiner Bio-One) at 70,000 cells per well and cultured overnight in conditions of 37°C and 5% CO2. A Ca^2+ assay dye stock solution was prepared by adding 10 mL of assay buffer (HBSS/20mM HEPES, pH 7.4) to FLIPR Calcium 4 Assay Bulk Kit (Molecular Devices). The 10 mL of Ca^2+ assay dye solution was prepared by further diluting 0.5 mL of Ca^2+ assay dye stock solution with 10 mL of assay buffer. The medium of the cells was removed and immediately 100 µL of the Ca^2+ assay dye solution was dispensed into each well followed by incubation at 37°C and 5% CO2 for 50 minutes to incorporate the Ca^2+ dye into the cells. The cell plate was then placed in the Flexstation (Molecular Devices) for 20 minutes at 37°C. Compounds were dissolved in 100% DMSO and diluted to desired concentrations with assay buffer and placed in the Flexstation simultaneously with the cell plate for 20 minute incubation at 37°C prior to reading. Fluorescence intensity was measured immediately following compound addition (25 µL/well) on the Flexstation at an excitation wavelength of 485 nm and an emission wavelength of 525 with 515 nm auto cutoff. The resulting increase in fluorescence intensities corresponds to increases in intracellular Ca^2+ levels.
Compounds were dissolved in 100% DMSO to a concentration of 20 mM to provide stock solutions. To determine activity against human GPR120, compounds were added with human GPR120 stably expressing cells (described above), at eight desired concentrations ranging from 0.00001 to 20 µM, in 96 well plates and fluorescence intensities were measured for 90 seconds with 2-second intervals. An EC50 value (concentration of the GPR120 agonist where 50% of the agonist's maximal activity is observed) was calculated using the changes (Max-Min) of fluorescence intensity.
To determine percent activity for a tested compound, the fluorescence intensity value obtained at a particular concentration were compared to the maximal fluorescence intensity value obtained for reference compound GW9508 (4-[[(3-phenoxyphenyl)methyl]amino]benzene propanoic acid; British Journal of Pharmacology 2006 148, 619-628) or the compound of Example 25. When GW9508 was used as the reference compound, the maximal activity of GW9508 at 6.7µM was designated as 100% activity. When the compound of Example 25 was used as the reference compound, the maximal activity of the compound of Example 25 at 2.5 µM was designated as 100% activity. Typically, the GW9508 activity reached a maximum at a concentration of approximately 6.7 µM and typically the compound of Example 25 reached a maximum activity at approximately 2.5µM. […]

% Activity (Ex. 25 Reference Compound) | Molecule
158.08% | 2-(4-((5-fluoro-3H-spiro[benzofuran-2,1'-cyclopentane]-7-yl)methoxy)phenyl)cyclopropanecarboxylic acid [Example 165]
95.58% | CC1(C)Cc2cc(F)cc(COc3c(F)cc(CC4CC4C(=O)O)cc3F)c2O1 (single isomer, unassigned) [Example 184A, 2-(3,5-difluoro-4-((5-fluoro-2,2-dimethyl-2,3-dihydrobenzofuran-7-yl)methoxy)benzyl)cyclopropanecarboxylic acid]
130.66% | CC1(C)Cc2cc(F)cc(COc3c(F)cc(CC4CC4C(=O)O)cc3F)c2O1 (single isomer, unassigned) [Example 184B, 2-(3,5-difluoro-4-((5-fluoro-2,2-dimethyl-2,3-dihydrobenzofuran-7-yl)methoxy)benzyl)cyclopropanecarboxylic acid]

Same assay, conditions: HEK293, % activity at 5 µM compared to the maximal activity of GW9508 at 6.7 µM (=100%); HEK293 cells co-expressing Gqi5; read-out: %Activity (GW9508 Reference Compound)

activity at 5 µM | Molecule
135% | CC(Cc1cc(F)c(OCc2cccc3c2OC(C)(C)CC3)c(F)c1)C(=O)O (stereo not drawn) [Example 2, 3-(4-((2,2-dimethylchroman-8-yl)methoxy)-3,5-difluorophenyl)-2-methylpropanoic acid]
124% | CC(Cc1cc(F)c(OCc2cccc3c2OCC3)c(F)c1)C(=O)O (stereo not drawn) [Example 3, 3-(4-((2,3-dihydrobenzofuran-7-yl)methoxy)-3,5-difluorophenyl)-2-methylpropanoic acid]
111% | Cc1cc(COc2ccc(CC(C)C(=O)O)cc2)c2c(c1)CC(C)(C)O2 (stereo not drawn) [Example 4, 2-methyl-3-(4-((2,2,5-trimethyl-2,3-dihydrobenzofuran-7-yl)methoxy)phenyl)propanoic acid]
149% | Cc1cc(COc2c(F)cc(CC(C)C(=O)O)cc2F)c2c(c1)CC(C)(C)O2 (stereo not drawn) [Example 5, 3-(3,5-difluoro-4-((2,2,5-trimethyl-2,3-dihydrobenzofuran-7-yl)methoxy)phenyl)-2-methylpropanoic acid]
147% | Cc1cc(CC(C)C(=O)O)ccc1OCc1cc(F)cc2c1OC(C)(C)C2 (stereo not drawn) [Example 6, 3-(4-((5-fluoro-2,2-dimethyl-2,3-dihydrobenzofuran-7-yl)methoxy)-3-methylphenyl)-2-methylpropanoic acid]
168% | COc1cc(CC(C)C(=O)O)ccc1OCc1cc(F)cc2c1OC(C)(C)C2 (stereo not drawn) [Example 7, 3-(4-((5-fluoro-2,2-dimethyl-2,3-dihydrobenzofuran-7-yl)methoxy)-3-methoxyphenyl)-2-methylpropanoic acid]
135% | CC(Cc1ccc(OCc2cc(F)cc3c2OC(C)(C)C3)c(F)c1)C(=O)O (stereo not drawn) [Example 8, 3-(3-fluoro-4-((5-fluoro-2,2-dimethyl-2,3-dihydrobenzofuran-7-yl)methoxy)phenyl)-2-methylpropanoic acid]
124% | Cc1cc(CC(C)C(=O)O)ccc1OCc1cc(Cl)cc2c1OC(C)(C)C2 (stereo not drawn) [Example 11, 3-(4-((5-chloro-2,2-dimethyl-2,3-dihydrobenzofuran-7-yl)methoxy)-3-methylphenyl)-2-methylpropanoic acid]
116% | CC(Cc1ccc(OCc2cc(Cl)cc3c2OC(C)(C)C3)c(Cl)c1)C(=O)O (stereo not drawn) [Example 12, 3-(3-chloro-4-((5-chloro-2,2-dimethyl-2,3-dihydrobenzofuran-7-yl)methoxy)phenyl)-2-methylpropanoic acid]
84.5% | CC(Cc1cc(Cl)c(OCc2cc(Cl)cc3c2OC(C)(C)C3)c(Cl)c1)C(=O)O (stereo not drawn) [Example 14, 3-(3,5-dichloro-4-((5-chloro-2,2-dimethyl-2,3-dihydrobenzofuran-7-yl)methoxy)phenyl)-2-methylpropanoic acid]
109% | COc1cc(CC(C)C(=O)O)ccc1OCc1cc(Cl)cc2c1OC(C)(C)C2 (stereo not drawn) [Example 15, 3-(4-((5-chloro-2,2-dimethyl-2,3-dihydrobenzofuran-7-yl)methoxy)-3-methoxyphenyl)-2-methylpropanoic acid]
72.2% | CC(Cc1ccc(OCc2cccc3c2CC(C)(C)O3)cc1)C(=O)O (stereo not drawn) [Example 17, 3-(4-((2,2-dimethyl-2,3-dihydrobenzofuran-4-yl)methoxy)phenyl)-2-methylpropanoic acid]
130% | CC(Cc1cc(F)c(OCc2cc(F)cc3c2OC(C)(C)C3)c(F)c1)C(=O)O (stereo not drawn) [Example 18, 3-(3,5-difluoro-4-((5-fluoro-2,2-dimethyl-2,3-dihydrobenzofuran-7-yl)methoxy)phenyl)-2-methylpropanoic acid]
126% | CC1(C)Cc2cc(F)cc(COc3c(F)cc(C4CC4C(=O)O)cc3F)c2O1 (stereo not drawn) [Example 19, 2-(3,5-difluoro-4-((5-fluoro-2,2-dimethyl-2,3-dihydrobenzofuran-7-yl)methoxy)phenyl)cyclopropanecarboxylic acid]
138% | CC1Cc2cccc(COc3c(F)cc(CCC(=O)O)cc3F)c2O1 (stereo not drawn) [Example 20]
113% | CC(Cc1cc(F)c(OCc2cccc3c2CC(C)(C)O3)c(F)c1)C(=O)O (stereo not drawn) [Example 21, 3-(4-((2,2-dimethyl-2,3-dihydrobenzofuran-4-yl)methoxy)-3,5-difluorophenyl)-2-methylpropanoic acid]
126% | CC1(C)Cc2c(COc3c(F)cc(C4CC4C(=O)O)cc3F)cccc2O1 (stereo not drawn) [Example 22, 2-(4-((2,2-dimethyl-2,3-dihydrobenzofuran-4-yl)methoxy)-3,5-difluorophenyl) cyclopropanecarboxylic acid]
113% | CC(Cc1cc(F)c(OCc2cccc3c2OC(C)(C)C3)c(F)c1)C(=O)O (stereo not drawn) [Example 23, 3-(4-((2,2-dimethyl-2,3-dihydrobenzofuran-7-yl)methoxy)-3,5-difluorophenyl)-2-methylpropanoic acid]
100% | CC1(C)Cc2cccc(COc3c(F)cc(C4CC4C(=O)O)cc3F)c2O1 (stereo not drawn) [Example 24, 2-(4-((2,2-dimethyl-2,3-dihydrobenzofuran-7-yl)methoxy)-3,5-difluorophenyl) cyclopropanecarboxylic acid]
102% | CC1(C)Cc2cccc(COc3c(F)cc(CCC(=O)O)cc3F)c2O1 [Example 25, 3-(4-((2,2-dimethyl-2,3-dihydrobenzofuran-7-yl)methoxy)-3,5-difluorophenyl)propanoic acid]
164% | CC(Cc1ccc(OCc2cc(Cl)cc3c2OC(C)(C)C3)cc1Cl)C(=O)O (stereo not drawn) [Example 26, 3-(2-chloro-4-((5-chloro-2,2-dimethyl-2,3-dihydrobenzofuran-7-yl)methoxy)phenyl)-2-methylpropanoic acid]
144% | CC1(C)Cc2c(F)ccc(COc3c(F)cc(C4CC4C(=O)O)cc3F)c2O1 (stereo not drawn) [Example 27, 2-(3,5-difluoro-4-((4-fluoro-2,2-dimethyl-2,3-dihydrobenzofuran-7-yl)methoxy)phenyl)cyclopropanecarboxylic acid]
110% | CC(Cc1cc(F)c(OCc2ccc(F)c3c2OC(C)(C)C3)c(F)c1)C(=O)O (stereo not drawn) [Example 28, 3-(3,5-difluoro-4-((4-fluoro-2,2-dimethyl-2,3-dihydrobenzofuran-7-yl)methoxy)phenyl)-2-methylpropanoic acid]

Same assay, conditions: typical value, reference compounds of the Ca2+ assay

concentration at which activity reached a maximum | Molecule
approximately 2.5 µM | CC1(C)Cc2cccc(COc3c(F)cc(CCC(=O)O)cc3F)c2O1 [Example 25, 3-(4-((2,2-dimethyl-2,3-dihydrobenzofuran-7-yl)methoxy)-3,5-difluorophenyl)propanoic acid]
